Laboratory results: US20260218130A1, “METHOD FOR CULTURING ANIMAL CELLS” (Ajinomoto Co., Inc., priority 2023, published 2026)

Key:
[1] = system: CD8-positive human T cells; assay: Proliferation of CD8-positive human T cells in serum-free medium; assay type: cell-based; conditions: hinokitiol 0.49 or 0.0049 μM, cell count after 7 days, FIG. 4
Procedure: CD3 Monoclonal Antibody (Thermo Fisher Scientific, Cat No. 16-0037-85) was mixed with PBS and added to a 24-well plate. After incubating at 37° C. for 1 hour, the plate was washed 3 times with PBS. As a base medium, CTS™ OpTmizer™ T Cell Expansion (Thermo Fisher Scientific, Cat No. A104851) supplemented with CTS™ Immune Cell SR (Thermo Fisher Scientific, Cat No. A2596101), 200 mM L-glutamine (Thermo Fisher Scientific, Cat No. 25030081), P/S/Amphotericin B (Fujifilm-Wako, Cat No. 161-23181), and IL2 (PeproTech, Cat No. 200-02) was used. In the coated 24-well plates, medium groups with hinokitiol added as shown in Table 3 were prepared, and CD8+ T cells (LONZA, Cat No. 2W-300) were cultured in each respective group. A cell count was performed after 7 days, and the proliferation rate was calculated.

HEK293 cells = assay: Proliferation of HEK293 cells in suspension culture system; assay type: cell-based, human; conditions: hinokitiol 500 nM in Basal 10 or in-house medium, 20 days, FIG. 3
Procedure: As HEK293, Viral Production Cells 2.0 (Thermo Fisher Scientific: A49784), which is a clonal cell line derived from the HEK293 cell line, was used. The HEK293 cell line is widely known as a cell line derived from human embryonic kidney.
Using a 125 mL Erlenmeyer flask (VIOLAMO, SEF125V), Viral Production Cells 2.0, a clonal cell line derived from the HEK293 cell line, were seeded into 30 ml of Viral Production Medium (Thermo Fisher Scientific: A4817901) supplemented with GlutaMAX™ Supplement (Thermo Fisher Scientific, Cat No. 35050061) to a final concentration of 4 mM.
The cells were cultured with agitation in an incubator set at 37° C. and 8% CO2, and were subcultured twice. Thereafter, the cells were subcultured and cultured in a medium based on 30 mL of Basal 10 (Ajinomoto Healthy Supply, Co., Inc., CELLIST™ Basal media BASAL10) or an in-house medium supplemented with hinokitiol to a final concentration of 500 nM. The process of measuring the viable cell count every 3 or 4 days using a Vi-CELL BLU Cell Viability Analyzer (Beckman Coulter) before subculturing was repeated, and the cells were cultured for a total of 20 days.

bovine muscle stem cells = assay: Proliferation of bovine muscle stem cells in serum-free medium; assay type: cell-based; conditions: FIG. 1
Description: Muscle tissue was collected from edible bovine shank meat, and CD56-positive cells were isolated using a Magnetic-Activated Cell Sorting (MACS) system to obtain bovine muscle stem cells. The bovine muscle stem cells obtained in (1-1) were suspended in a serum medium. As the serum medium, a medium was used in which Advanced DMEM (Thermo Fisher Scientific, Cat No. 12491015) was supplemented with 20% FBS (Thermo Fisher Scientific, Cat No. 10270106), 10% horse serum (Thermo Fisher Scientific, Cat No. 16050-130), and 1% GlutaMAX™ Supplement (Thermo Fisher Scientific, Cat No. 35050061). The cell suspension was seeded into a 12-well plate (BD FALCON, Cat #353046) coated with 1 μg/cm^2 fibronectin (Corning, Cat #F2006) at a cell density of 25,000 cells/0.2 mL, and the medium was changed every other day. On the fourth day of culture, the cells were subcultured into a hinokitiol-containing serum-free medium, a hinokitiol- and iron-containing serum-free medium, an iron-containing serum-free medium, a transferrin- and iron-containing serum-free medium, a transferrin-containing serum-free medium, or a serum-free medium not containing hinokitiol and transferrin, and the medium was changed every other day. […] Cell counting and subculturing were performed every 4 days, and the growth rate for two consecutive passages from day 4 to day 12 was calculated.

[2] = system: porcine subcutaneous preadipocytes (PSPA); assay: Proliferation of porcine subcutaneous preadipocytes (PSPA) in serum-free medium; assay type: cell-based; conditions: hinokitiol 0.25 or 0.5 μM + FeSO4•7H2O 1 μM, serum-free medium (transferrin-free); 4 days; FIG. 2
Procedure: As the porcine subcutaneous preadipocytes (PSPA), an adipose precursor cell line derived from porcine fetal subcutaneous tissue, described in Nakajima, et al. Biochem Biophys Res Commun. 2003 Sep. 26; 309(3): 702-8, was obtained from RIKEN RCB and used. The porcine subcutaneous preadipocytes (PSPA) from (2-1) were cultured using a serum medium. As the serum medium, a medium was used in which DMEM (Gibco, Cat No. 10313-021) was supplemented with 10% FBS (Thermo Fisher Scientific, Cat No. 10270106), 1% GlutaMAX™ Supplement (Thermo Fisher Scientific, Cat No. 35050061), and 1% Penicillin-Streptomycin (Nacalai Tesque, Cat No. 09367-34). As the serum-free medium, a medium based on the aforementioned E8 medium was used. PSPA were seeded into a 12-well plate at a density of 10,000 cells/cm^2, and the cells were subcultured into a serum medium, a transferrin-containing serum-free medium, or a hinokitiol- and iron-containing serum-free medium (transferrin-free), with medium exchange performed every other day. Cell counting was performed 4 days after the start of culturing, and the fold increase in cell number was calculated.

Structure (SMILES): CC(C)c1cccc(=O)c(O)c1 [hinokitiol]
- cell proliferation (fold increase, proliferation rate) [1]: cell proliferation-promoting effect
- cell proliferation (viable cell count) (HEK293 cells): cell proliferation-promoting effect
- cell proliferation-promoting effect on enhancing the iron concentration (bovine muscle stem cells; hinokitiol 0.03 or 0.30 μM + FeSO4•7H2O 1.0 or 10.1 μM, serum-free medium, in some cases): further improved
- cell proliferation (fold increase, growth rate for two consecutive passages) (bovine muscle stem cells; hinokitiol 0.03 or 0.30 μM in E8-based serum-free medium, transferrin-free, day 4 to day 12): cell proliferation-promoting effect
- cell proliferation (fold increase in cell number) [2]: cell proliferation-promoting effect
